In patent US20250302721A1, “ANTI-AGING EYE CREAM” (L'OREAL, priority 2024, published 2025):

How the values were obtained:
[1] = test system: Full-thickness reconstructed skin (T-Skin, Episkin); assay: sGAG release in full-thickness reconstructed skin (sulfated glycosaminoglycan assay kit); format: cell-based; conditions: PX 0.02% and 0.06% in medium, Day 11 through Day 15, medium supernatant, n=3, FIG. 7
Protocol: Full-thickness reconstructed skin (T-Skin, Episkin) was treated systemically with hydroxypropyl tetrahydropyrantriol (PX, 0.02% and 0.06%) based on the T-skin evaluation test. Tissues are received on medium at day 11 and stored at 37C (95% humidity and 5% CO2) until the end of treatments at […]. The tissue receive medium and medium+hydroxypropyl tetrahydropyrantriol starting from Day 11 through Day 15 (n=3). At Day 15, the medium supernatant was collected to be measured with the sulfated glycosaminoglycan assay kit (ab289846, Abcam). For analysis, sGAG release of the supernatant was quantified based on vendor protocol.

[2] = test system: Normal adult human epidermal keratinocytes (NHEK-Ad); assay: keratinocyte proliferation (Ki67 vs DAPI staining); format: cell-based; conditions: 48 hours, FIG. 9 and FIG. 10
Protocol: Normal adult human epidermal keratinocytes (NHEK-Ad, Cat #00192627, Lonza, Switzerland) were maintained in basal growth medium (KGM Gold keratinocyte Growth Medium Bulletkit, Cat #00192060) until the initiation of the proliferation experiment. The keratinocytes were seeded at a concentration of 1×10^3/24 well and allowed to equilibrate overnight (n=3/group). The cell culture medium was switched with fresh growth containing different concentrations of hydroxypropyl tetrahydropyrantriol (0.005%, 0.017%, and 0.05%), NAM (0.0012%, 0.004%, and 0.012%) alone and combination of hydroxypropyl tetrahydropyrantriol+niacinamide (PX/NAM). The cells were incubated for 48 hours and the keratinocytes were stained against KI67 primary antibody (Anti-Ki67 antibody, Cat #ab15580, Abcam) and goat anti-rabbit IgG Alexa Fluor®488 secondary antibody (Cat #150077, Abcam). The Ki67 and DAPI fluorescent signals were captured using a fluorescent microscope (DMi8, Leica). The Ki67 expression was quantified against total cell nucleus staining (DAPI staining solution, ab228549, Abcam) in order to calculate the number of proliferating cells vs. total number of cells.

| SMILES | sGAG release [1] | skin cell proliferation (Ki67 vs total nuclei) ([2]; 0.004% niacinamide) | skin cell proliferation (Ki67 vs total nuclei) ([2]; 0.012% niacinamide) |
| --- | --- | --- | --- |
| CC(O)C[C@@H]1OC[C@@H](O)[C@H](O)[C@H]1O (stereo partly drawn) [hydroxypropyl tetrahydropyrantriol, C-beta-D-xylopyranoside-2-hydroxypropane] | increase sGAG release | – | – |
| NC(=O)c1cccnc1 [niacinamide] | – | significantly increase proliferation | significantly increase proliferation |
